{"source": "patent US20140308726A1", "about": "“Controlling Bacterial Biofilms in Ethanol Production” (ANITOX CORPORATION, priority 2011, published 2014)", "origin": "cited, not measured here", "key": {"[1]": {"tested_on": "Lactobacillus", "conditions": "600 mg/L"}, "[2]": {"tested_on": "yeast", "conditions": "8 g/L; beet molasses batch fermentation"}, "[3]": {"tested_on": "Lactobacillus", "conditions": "8.6 ppm Nisin combined with 0.1% Tween 20"}}, "note": "Where two headings read alike, the source gives them in different places.", "data": [{"compound": "O=C(O)CCC(=O)O", "note": "[Succinic acid]", "values": [{"measurement": "Reduction of Lactobacillus concentrations", "setting": "[1]; by itself", "result": 78, "unit": "%"}, {"measurement": "Reduction of Lactobacillus concentrations", "setting": "[1]; in the presence of ethanol", "result": "up to 96%"}]}, {"compound": "CC(O)C(=O)O", "note": "(centres unmarked) [lactic acid]", "values": [{"measurement": "Reduction of alcohol production rate", "setting": "[2]", "result": 80, "unit": "%"}, {"measurement": "Reduction of yeast viability", "setting": "[2]", "result": 95, "unit": "%"}]}, {"compound": "Nisin", "values": [{"measurement": "Delay of the lag phase of lactobacillus", "setting": "[3]", "result": 12, "unit": "h"}]}]}
